Experimental data published in patent US9427482B2, “Agents for clearing biomolecules from circulation” (KONINKLIJKE PHILIPS N.V., priority 2010, dated 2016).

Tested on: tumor
Test: Dual isotope biodistribution, mice pretargeted with CC49-TCO 20 (Example 10)
Type: in vivo
Settings: two doses of 12; 3 h after ^177Lu-tetrazine 15
Protocol: Tumor-bearing mice (ca. 100 mm^3 tumor size; n=4) were injected with ^125I-CC49 functionalized with 7.5 TCO-20 groups (100 μg/mouse, ca. 0.2 MBq). Thirty and 48 hours post-mAb injection the mice received one dose of clearing agent (galactose-MSA-tetrazine, 160 μg/dose) followed 2 h later by ^177Lu-tetrazine 15 (10 eq. with respect to the mAb, ca. 0.5 MBq). Three hours post-tetrazine injection the mice were anesthetized and sacrificed by cervical dislocation, blood was withdrawn by heart puncture, organs and tissues of interest were harvested and blotted dry. All collected samples were weighed and added with 1 mL PBS. The sample radioactivity was measured in a gamma-counter with a dual-isotope protocol (10-80 keV window for ^125I and 155-380 keV window for ^177Lu) along with standards to determine the percent injected dose per gram tissue (% ID/g).

O=C([O-])CN1CCN(CC(=O)[O-])CCN(CC(=O)NCCOCCOCCOCCOCCOCCOCCOCCOCCOCCOCCOCCNC(=O)CCCC(=O)Nc2ccc(-c3nnc(-c4ccccn4)nn3)nc2)CCN(CC(=O)[O-])CC1.[177Lu+3] [^177Lu-tetrazine]
^177Lu-tetrazine Blood: 0.03 ± 0.00 % ID/gram | ^177Lu-tetrazine Bone: 0.08 ± 0.04 % ID/gram | ^177Lu-tetrazine Brain: 0.01 ± 0.00 % ID/gram | ^177Lu-tetrazine Heart: 0.05 ± 0.01 % ID/gram | ^177Lu-tetrazine Kidney: 1.50 ± 0.24 % ID/gram | ^177Lu-tetrazine Liver: 0.19 ± 0.02 % ID/gram | ^177Lu-tetrazine Lung: 0.24 ± 0.02 % ID/gram | ^177Lu-tetrazine Muscle: 0.03 ± 0.00 % ID/gram | ^177Lu-tetrazine Spleen: 0.09 ± 0.01 % ID/gram | ^177Lu-tetrazine Tumor: 9.25 ± 2.16 % ID/gram | ^177Lu-tetrazine Tumor/organ Blood: 304 ± 80 | ^177Lu-tetrazine Tumor/organ Bone: 142 ± 59 | ^177Lu-tetrazine Tumor/organ Brain: 1674 ± 243 | ^177Lu-tetrazine Tumor/organ Heart: 187 ± 20 | ^177Lu-tetrazine Tumor/organ Kidney: 6 ± 2 | ^177Lu-tetrazine Tumor/organ Liver: 50 ± 10 | ^177Lu-tetrazine Tumor/organ Lung: 39 ± 8 | ^177Lu-tetrazine Tumor/organ Muscle: 328 ± 96 | ^177Lu-tetrazine Tumor/organ Spleen: 108 ± 22
